According to PubChem BioAssay AID196 (DTP/NCI, 2004):
Where “and” joins values, the source holds several entries; their conditions need not be identical. Equal entries are not always repeated. Inconclusive results and toxic doses are left out.

Test system: BDF1 mice, intracerebral B16 melanoma, median survival T/C
Assay: NCI In Vivo Anticancer Drug Screen. Data for tumor model B16 Melanoma (intracerebral) in B6D2F1 (BDF1) mice
Conditions: endpoint: median survival time, higher = longer survival
Procedure: The antitumor activity of compounds was measured in mice bearing transplantable tumors. Survival or tumor size were measured and the results are expressed as the measurement made in the treated group (T) divided by the measurement made in the vehicle treated control group (C). The tumor model used in this assay is B16 Melanoma (intracerebral) in B6D2F1 (BDF1) mice

[1] = dose: 26.7 mg/kg/injection, schedule: Q01DX001 (ip), vehicle: Klucel (hydroxypropylcellulose) (HPC)
[2] = dose: 40.0 mg/kg/injection, schedule: Q01DX001 (ip), vehicle: Klucel (hydroxypropylcellulose) (HPC)
[3] = dose: 60.0 mg/kg/injection, schedule: Q01DX001 (ip), vehicle: Klucel (hydroxypropylcellulose) (HPC)
[4] = dose: 64.0 mg/kg/injection, schedule: Q01DX005 (ip), vehicle: saline with Tween-80
[5] = dose: 128.0 mg/kg/injection, schedule: Q01DX005 (ip), vehicle: saline with Tween-80

Cc1cn(C2CC(O)C(CO)O2)c(=O)[nH]c1=O (configuration not stated)
T/C (dose: 100.0 mg/kg/injection, schedule: Q01DX009 (ip), vehicle: saline with Tween-80): 102 % of control and 109 % of control | T/C (dose: 100.0 mg/kg/injection, schedule: Q01DX009 (ip), vehicle: saline): 100 % of control and 111 % of control | T/C (dose: 200.0 mg/kg/injection, schedule: Q01DX009 (ip), vehicle: saline with Tween-80): 105 % of control | T/C (dose: 200.0 mg/kg/injection, schedule: Q01DX009 (ip), vehicle: saline): 103 % of control and 110 % of control | T/C (dose: 400.0 mg/kg/injection, schedule: Q01DX009 (ip), vehicle: saline with Tween-80): 105 % of control | T/C (dose: 400.0 mg/kg/injection, schedule: Q01DX009 (ip), vehicle: saline): 94 % of control and 101 % of control | T/C (dose: 800.0 mg/kg/injection, schedule: Q01DX009 (ip), vehicle: saline with Tween-80): 124 % of control and 95 % of control | T/C (dose: 800.0 mg/kg/injection, schedule: Q01DX009 (ip), vehicle: saline): 100 % of control and 107 % of control | T/C (dose: 1600.0 mg/kg/injection, schedule: Q01DX009 (ip), vehicle: saline with Tween-80): 92 % of control and 94 % of control

O=NN(CCF)C(=O)NCCO
T/C (dose: 13.0 mg/kg/injection, schedule: Q01DX001 (ip), vehicle: saline): 169 % of control | T/C (dose: 21.6 mg/kg/injection, schedule: Q01DX001 (ip), vehicle: saline): 209 % of control | T/C [1]: 90 % of control | T/C (dose: 36.0 mg/kg/injection, schedule: Q01DX001 (ip), vehicle: saline): 392 % of control | T/C [2]: 338 % of control | T/C [3]: 220 % of control

CN(C)N=Nc1ccc(Cl)c2ncccc12
T/C (dose: 3.12 mg/kg/injection, schedule: Q01DX009 (ip), vehicle: other): 108 % of control | T/C (dose: 6.25 mg/kg/injection, schedule: Q01DX009 (ip), vehicle: other): 97 % of control | T/C (dose: 12.5 mg/kg/injection, schedule: Q01DX009 (ip), vehicle: other): 100 % of control | T/C (dose: 50.0 mg/kg/injection, schedule: Q01DX009 (ip), vehicle: other): 94 % of control

S=P(N1CC1)(N1CC1)N1CC1
T/C (dose: 1.0 mg/kg/injection, schedule: Q01DX009 (ip), vehicle: saline): 108 % of control (2×) and 113 % of control | T/C (dose: 2.0 mg/kg/injection, schedule: Q01DX009 (ip), vehicle: saline): 100 % of control | T/C (dose: 4.0 mg/kg/injection, schedule: Q01DX009 (ip), vehicle: saline): 120 % of control and 122 % of control | T/C (dose: 8.0 mg/kg/injection, schedule: Q01DX009 (ip), vehicle: saline): 172 % of control

Cc1ncc(CO)c(C)c1O
T/C (dose: 128.0 mg/kg/injection, schedule: Q01DX005 (ip), vehicle: Klucel (hydroxypropylcellulose) (HPC)): 100 % of control and 109 % of control | T/C (dose: 256.0 mg/kg/injection, schedule: Q01DX005 (ip), vehicle: Klucel (hydroxypropylcellulose) (HPC)): 98 % of control and 105 % of control

CN(C)/N=N/c1[nH]ncc1C(N)=O
T/C [4]: 154 % of control | T/C [5]: 121 % of control

NC(=S)N/N=C/c1ccc(O)cn1
T/C (dose: 12.0 mg/kg/injection, schedule: Q01DX005 (ip), vehicle: saline): 96 % of control | T/C (dose: 12.0 mg/kg/injection, schedule: Q01DX005 (ip), vehicle: suspension in saline): 103 % of control | T/C (dose: 24.0 mg/kg/injection, schedule: Q01DX005 (ip), vehicle: saline): 93 % of control | T/C (dose: 24.0 mg/kg/injection, schedule: Q01DX005 (ip), vehicle: suspension in saline): 96 % of control | T/C (dose: 48.0 mg/kg/injection, schedule: Q01DX005 (ip), vehicle: saline): 100 % of control | T/C (dose: 48.0 mg/kg/injection, schedule: Q01DX005 (ip), vehicle: suspension in saline): 91 % of control | T/C (dose: 96.0 mg/kg/injection, schedule: Q01DX005 (ip), vehicle: saline): 97 % of control | T/C (dose: 96.0 mg/kg/injection, schedule: Q01DX005 (ip), vehicle: suspension in saline): 108 % of control

S=c1nc[nH]c2nc[nH]c12
T/C (dose: 11.3 mg/kg/injection, schedule: Q01DX009 (ip), vehicle: other): 91 % of control | T/C (dose: 22.5 mg/kg/injection, schedule: Q01DX009 (ip), vehicle: other): 100 % of control | T/C (dose: 45.0 mg/kg/injection, schedule: Q01DX009 (ip), vehicle: other): 100 % of control

CS(=O)(=O)Nc1ccc(Nc2c3ccccc3nc3cc([N+](=O)[O-])ccc23)cc1
T/C (dose: 25.0 mg/kg/injection, schedule: Q04DX003 (ip), vehicle: saline sonified): 100 % of control | T/C (dose: 50.0 mg/kg/injection, schedule: Q04DX003 (ip), vehicle: saline sonified): 95 % of control | T/C (dose: 75.0 mg/kg/injection, schedule: Q04DX003 (ip), vehicle: saline sonified): 87 % of control

N=C(N)SCc1c2ccccc2c(CSC(=N)N)c2ccccc12
T/C (dose: 2.5 mg/kg/injection, schedule: Q01DX005 (ip), vehicle: Klucel (hydroxypropylcellulose) (HPC)): 107 % of control and 111 % of control | T/C (dose: 5.0 mg/kg/injection, schedule: Q01DX005 (ip), vehicle: Klucel (hydroxypropylcellulose) (HPC)): 90 % of control and 92 % of control | T/C (dose: 10.0 mg/kg/injection, schedule: Q01DX005 (ip), vehicle: Klucel (hydroxypropylcellulose) (HPC)): 97 % of control and 103 % of control | T/C (dose: 20.0 mg/kg/injection, schedule: Q01DX005 (ip), vehicle: Klucel (hydroxypropylcellulose) (HPC)): 93 % of control and 96 % of control

c1ccc([C@H]2CN3CCSC3=N2)cc1
T/C (dose: 5.0 mg/kg/injection, schedule: Q01DX009 (ip), vehicle: saline): 98 % of control and 105 % of control | T/C (dose: 10.0 mg/kg/injection, schedule: Q01DX005 (ip), vehicle: saline): 120 % of control and 93 % of control | T/C (dose: 10.0 mg/kg/injection, schedule: Q01DX009 (ip), vehicle: saline): 89 % of control and 94 % of control and 98 % of control | T/C (dose: 20.0 mg/kg/injection, schedule: Q01DX005 (ip), vehicle: saline): 96 % of control and 112 % of control | T/C (dose: 20.0 mg/kg/injection, schedule: Q01DX009 (ip), vehicle: saline): 87 % of control and 89 % of control and 98 % of control | T/C (dose: 40.0 mg/kg/injection, schedule: Q01DX005 (ip), vehicle: saline): 93 % of control and 108 % of control | T/C (dose: 40.0 mg/kg/injection, schedule: Q01DX009 (ip), vehicle: saline): 103 % of control

O=NN(CCCl)C(=O)NC1[C@H](O)CCC[C@@H]1O (some centres not stated)
T/C (dose: 4.32 mg/kg/injection, schedule: Q01DX001 (ip), vehicle: saline): 104 % of control | T/C (dose: 12.0 mg/kg/injection, schedule: Q01DX001 (ip), vehicle: saline): 152 % of control

O=NN(CCF)C(=O)NC1CCC(=O)NC1=O (configuration not stated)
T/C [1]: 115 % of control | T/C [2]: 111 % of control | T/C [3]: 157 % of control

Nc1nncs1
T/C [4]: 100 % of control and 107 % of control | T/C [5]: 119 % of control and 97 % of control | T/C (dose: 256.0 mg/kg/injection, schedule: Q01DX005 (ip), vehicle: saline with Tween-80): 113 % of control | T/C (dose: 512.0 mg/kg/injection, schedule: Q01DX005 (ip), vehicle: saline with Tween-80): 113 % of control

CNc1nc(N(C)C)nc(N(C)C)n1
T/C (dose: 12.5 mg/kg/injection, schedule: Q01DX009 (ip), vehicle: saline): 102 % of control and 106 % of control

CC1CCC(NC(=O)N(CCCl)N=O)CC1 (configuration not stated)
T/C (dose: 0.5 mg/kg/injection, schedule: Q01DX009 (ip), vehicle: Klucel (hydroxypropylcellulose) (HPC)): 105 % of control | T/C (dose: 1.0 mg/kg/injection, schedule: Q01DX009 (ip), vehicle: Klucel (hydroxypropylcellulose) (HPC)): 102 % of control | T/C (dose: 2.0 mg/kg/injection, schedule: Q01DX009 (ip), vehicle: Klucel (hydroxypropylcellulose) (HPC)): 111 % of control | T/C (dose: 4.0 mg/kg/injection, schedule: Q01DX009 (ip), vehicle: Klucel (hydroxypropylcellulose) (HPC)): 117 % of control | T/C (dose: 6.48 mg/kg/injection, schedule: Q01DX001 (ip), vehicle: other): 106 % of control | T/C (dose: 10.8 mg/kg/injection, schedule: Q01DX001 (ip), vehicle: other): 117 % of control | T/C (dose: 50.0 mg/kg/injection, schedule: Q01DX001 (ip), vehicle: other): 118 % of control

CC[C@]1(O)C[C@H]2CN(CCc3c([nH]c4ccccc34)[C@@](C(=O)OC)(c3cc4c(cc3OC)N(C=O)[C@H]3[C@@](O)(C(=O)OC)[C@H](OC(C)=O)[C@]5(CC)C=CCN6CC[C@]43[C@@H]65)C2)C1
T/C (dose: 0.02 mg/kg/injection, schedule: Q01DX009 (ip), vehicle: saline): 96 % of control | T/C (dose: 0.03 mg/kg/injection, schedule: Q01DX009 (ip), vehicle: saline): 96 % of control | T/C (dose: 0.06 mg/kg/injection, schedule: Q01DX009 (ip), vehicle: saline): 92 % of control and 95 % of control | T/C (dose: 0.13 mg/kg/injection, schedule: Q01DX009 (ip), vehicle: saline): 117 % of control and 108 % of control | T/C (dose: 0.26 mg/kg/injection, schedule: Q01DX009 (ip), vehicle: saline): 100 % of control

NC(=O)N(CCCl)N=O
T/C (dose: 1.0 mg/kg/injection, schedule: Q01DX001 (ip), vehicle: saline + alcohol): 102 % of control | T/C (dose: 2.0 mg/kg/injection, schedule: Q01DX001 (ip), vehicle: saline + alcohol): 112 % of control | T/C (dose: 4.0 mg/kg/injection, schedule: Q01DX001 (ip), vehicle: saline + alcohol): 121 % of control
